Test results published in the supplement of paper PMC10307832.

What was measured:
Test in all cases: relative viability (nuclei count vs DMSO), 5 days (fraction); higher = more cells survive
NCI-H2009 = tested on: NCI-H2009
How it was run: (§1)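 Five library-drug doses in √10 steps were combined with a fixed anchor-drug dose, or a single drug was given alone, by pin tool to lung cancer cell lines in 1536-well plates the day after seeding. Nuclei were stained and counted after 5 days. Relative viability is the nuclei count in treated wells over that in vehicle wells, taken as the median of duplicate plates.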

NCI-H650 = tested on: NCI-H650
How it was run: as §1

NCI-H1792 = tested on: NCI-H1792
How it was run: as §1

HCC-366 = tested on: HCC-366
How it was run: as §1

201T = tested on: 201T
How it was run: as §1

COR-L 105 = tested on: COR-L 105
How it was run: as §1

LC-2-ad = tested on: LC-2-ad
How it was run: as §1

HCC-15 = tested on: HCC-15
How it was run: as §1

PC-14 = tested on: PC-14
How it was run: as §1

NCI-H1755 = tested on: NCI-H1755
How it was run: as §1

NCI-H1395 = tested on: NCI-H1395
How it was run: as §1

NCI-H2347 = tested on: NCI-H2347
How it was run: as §1

Cc1cn(-c2cc(NC(=O)c3ccc(C)c(Nc4nccc(-c5cccnc5)n4)c3)cc(C(F)(F)F)c2)cn1 [Nilotinib] + CC(=O)c1c(C)c2cnc(Nc3ccc(N4CCNCC4)cn3)nc2n(C2CCCC2)c1=O [Palbociclib] (partner 0.5 µM)
relative viability (NCI-H2009; first compound 0.03162 µM): 0.211 | relative viability (NCI-H2009; first compound 0.1 µM): 0.191 | relative viability (NCI-H650; first compound 0.001 µM): 0.335 | relative viability (NCI-H650; first compound 0.01 µM): 0.336 | relative viability (NCI-H650; first compound 0.03162 µM): 0.305 | relative viability (NCI-H650; first compound 0.1 µM): 0.333 | relative viability (NCI-H1792; first compound 0.001 µM): 0.582 | relative viability (NCI-H1792; first compound 0.003162 µM): 0.684 | relative viability (NCI-H1792; first compound 0.01 µM): 0.732 | relative viability (NCI-H1792; first compound 0.1 µM): 0.89 | relative viability (HCC-366; first compound 0.001 µM): 0.244 | relative viability (HCC-366; first compound 0.003162 µM): 0.379 | relative viability (HCC-366; first compound 0.01 µM): 0.396 | relative viability (HCC-366; first compound 0.03162 µM): 0.36 | relative viability (HCC-366; first compound 0.1 µM): 0.303 | relative viability (201T; first compound 0.001 µM): 0.326 | relative viability (201T; first compound 0.003162 µM): 0.371 | relative viability (201T; first compound 0.01 µM): 0.363 | relative viability (201T; first compound 0.03162 µM): 0.363 | relative viability (201T; first compound 0.1 µM): 0.351 | relative viability (COR-L 105; first compound 0.001 µM): 0.396 | relative viability (COR-L 105; first compound 0.003162 µM): 0.413 | relative viability (COR-L 105; first compound 0.01 µM): 0.28 | relative viability (COR-L 105; first compound 0.03162 µM): 0.399 | relative viability (COR-L 105; first compound 0.1 µM): 0.391 | relative viability (LC-2-ad; first compound 0.001 µM): 0.535 | relative viability (LC-2-ad; first compound 0.003162 µM): 0.605 | relative viability (LC-2-ad; first compound 0.01 µM): 0.561 | relative viability (LC-2-ad; first compound 0.03162 µM): 0.466 | relative viability (LC-2-ad; first compound 0.1 µM): 0.502 | relative viability (HCC-15; first compound 0.001 µM): 0.688 | relative viability (HCC-15; first compound 0.003162 µM): 0.882 | relative viability (HCC-15; first compound 0.01 µM): 0.87 | relative viability (HCC-15; first compound 0.03162 µM): 0.578 | relative viability (HCC-15; first compound 0.1 µM): 0.476 | relative viability (PC-14; first compound 0.001 µM): 0.45 | relative viability (PC-14; first compound 0.003162 µM): 0.741 | relative viability (PC-14; first compound 0.01 µM): 0.666 | relative viability (PC-14; first compound 0.03162 µM): 0.426 | relative viability (PC-14; first compound 0.1 µM): 0.713 | relative viability (NCI-H1755; first compound 0.001 µM): 0.451 | relative viability (NCI-H1755; first compound 0.003162 µM): 0.453 | relative viability (NCI-H1755; first compound 0.01 µM): 0.436 | relative viability (NCI-H1755; first compound 0.03162 µM): 0.468 | relative viability (NCI-H1755; first compound 0.1 µM): 0.368 | relative viability (NCI-H1395; first compound 0.001 µM): 0.636 | relative viability (NCI-H1395; first compound 0.01 µM): 0.692 | relative viability (NCI-H1395; first compound 0.03162 µM): 0.612 | relative viability (NCI-H1395; first compound 0.1 µM): 0.599 | relative viability (NCI-H2347; first compound 0.001 µM): 0.452 | relative viability (NCI-H2347; first compound 0.003162 µM): 0.419 | relative viability (NCI-H2347; first compound 0.01 µM): 0.474 | relative viability (NCI-H2347; first compound 0.03162 µM): 0.43 | relative viability (NCI-H2347; first compound 0.1 µM): 0.396
